Data published in patent publication EP4635945A1, “CRYSTAL FORM OF PROXIMOD, PREPARATION METHOD THEREFOR, AND USE THEREOF” (Jiankuan (Suzhou) Biotechnology Co., Ltd, priority 2022, dated 2024).

Assays:
Format in all cases: physicochemical
[1] = Hygroscopicity by dynamic vapor sorption (DVS)
Source text: (§1) In the examples of the present application, the instrument used for the X-ray powder diffraction test is the D2 Phaser produced by Bruker. The instrument used for the differential scanning calorimetry test is the differential scanning calorimeter DSC 250 produced by TA Instruments. The instrument used for the thermogravimetric analysis is the thermogravimetric analyzer TGA 55 produced by TA Instruments. The instrument used for the FT-IR test is the Fourier infrared spectrometer ID1-summit produced by Thermo. The instrument used for the dynamic vapor sorption test is the DVS Intrinsic produced by Surface Measurement Systems (SMS). The instrument used for the microscopy is the microscope NJF-120A produced by Suzhou Nanguang Electronic Technology Co., Ltd.

[2] = Microscopic morphology and particle size; conditions: microscopy
Source text: as §1

[3] = Compressibility: tableting, hardness and tensile strength; conditions: die with a diameter of 6 mm
Experimental: In this experiment, a die with a diameter of 6 mm was used. The drug substance and the drug substance + excipient were tableted under the same pressure, respectively. After the elasticity of the prepared tablets was restored, the radial crushing force F, diameter D, and thickness L of the tablets were measured. The tensile strength of the tablets was calculated according to the following formula: Ts = 2F/IIDL.

[4] = Equilibrium solubility in organic solvents at room temperature (HPLC, XRPD of solids); conditions: 24 hours of equilibrium, hydrochloride
Experimental: (§2) After 24 hours of equilibrium, the saturated solutions were obtained by filtration. The contents of the samples in the saturated solutions were determined by high-performance liquid chromatography (HPLC) (the filtered solutions were diluted as needed), and the crystal forms of the solids before and after the experiment were characterized by XRPD to check whether phase changes occurred.

[5] = Dynamic solubility in biorelevant media and buffers at 37 °C (HPLC, XRPD of solids)
Experimental: as §2, with “1 hour/2 hours/4 hours/24 hours,” for “24 hours of equilibrium,”, “actual concentrations” for “contents”

[6] = Mechanical stability: grinding in agate mortar, XRPD; conditions: 50 mg ground with an agate mortar for 5 minutes; hydrochloride
Source text: The samples before and after ground were detected by XRPD.

[7] = Adhesiveness: PE bag adhesive rate; conditions: flipped at 5 rpm, 10 minutes in each direction; hydrochloride
Experimental: The bags were sealed, flipped at a rotational speed of 5 rpm for 10 minutes, and continued to be flipped in a different flipping direction at a fixed rotational speed for 10 minutes. The materials were poured out of the bags, and the materials remaining in the bags were accurately weighed to calculate the adhesive rate.
The adhesive rate was calculated according to the following formula: Adhesive rate = (initialmaterialweight-remainingmaterialweight)/contact surface area. [formula]

[8] = Intrinsic dissolution of tableted crystal forms; conditions: hydrochloride
[9] = Fluidity: angle of repose, bulk and tap density, Hausner ratio; conditions: hydrochloride
Experimental: This experiment was performed by using a tap density tester according to the fixed-volume method. The specific operations are as follows: The weighed powder, with a volume of 50 mL, was loaded into a graduated cylinder, and the graduated cylinder was secured onto a support. The graduated cylinder was set to be vibrated at 55 ± 5 vibrations per minute for 6-8 minutes. The volume change of the powder was measured in a measuring cup. The ratio of the weight of the powder to the volume (50 mL) before tapping is the bulk density of the powder, and the ratio of the weight of the powder to the volume after tapping is the tapped density of the powder.
The Hausner ratio and the compression degree were converted in the following methods. Hausner ratio = tap density/bulk density [formula] Compression degree = (tapdensity−bulkdensity)/tap density [formula]
This experiment was performed by a pouring method, and the angles of repose of the drug substances of the two crystal forms were measured in combination with a residual cone method to analyze their fluidities. The specific operations are as follows: The powder was poured onto the center of a disk with a specific diameter, and when the material on the slope of the powder pile began to flow freely out along the periphery of the disk, the pouring of the powder was stopped. The height (h) of the cone was measured, and the angle of repose was calculated in combination with the diameter (2r) of the disk, that is, tanQ = h/r.

[10] = FaSSIF (pH of 8.0), 1 hour, hydrochloride
[11] = FaSSIF (pH of 8.0), 2 hours, hydrochloride
[12] = pH = 4.0 acetic acid-sodium acetate buffer, 1 hour, hydrochloride
[13] = pH = 4.0 acetic acid-sodium acetate buffer, 2 hours, hydrochloride
[14] = pH = 4.0 acetic acid-sodium acetate buffer, 4 hours, hydrochloride
[15] = pH = 4.0 acetic acid-sodium acetate buffer, 24 hours, hydrochloride
[16] = pH = 6.8 phosphate buffer, 4 hours
[17] = pH = 6.8 phosphate buffer, 24 hours

Weight gain by water absorption (DVS) ([1]; 25.6 °C/90% RH): 0.30% | Hygroscopicity description ([1]; DVS, 90% RH, hydrochloride): slightly hygroscopic | Weight gain by water absorption (DVS) ([1]; vapor sorption at 25 °C/90% RH): 0.26% | Maximum particle size [2]: less than 100 µm | Length/short diameter ratio ([2]; hydrochloride): 1-6 | Microscopic morphology ([2]; hydrochloride): rod-shaped | Tensile strength Ts ([3]; Ts = 2F/IIDL, hydrochloride): 0.10 | Hardness ([3]; same pressure, hydrochloride): 3 N | Experimental phenomena ([3]; tableting): Severe punch sticking | Solubility ([4]; Acetone): 32 µg/mL | Solubility ([4]; Ethanol): 7610 µg/mL | Solubility ([4]; Ethyl acetate): Not detected | Crystal form of the solid [5, 10]: Free alkali | Solubility [5, 10]: 70 µg/mL | Crystal form of the solid [5, 11]: Free alkali | Solubility [5, 11]: 200 µg/mL | Crystal form of the solid ([5]; FaSSIF (pH of 8.0), 4 hours): Free alkali | Solubility ([5]; FaSSIF (pH of 8.0), 4 hours, hydrochloride): 410 µg/mL | Crystal form of the solid ([5]; FaSSIF (pH of 8.0), 24 hours): Free alkali | Solubility ([5]; FaSSIF (pH of 8.0), 24 hours, hydrochloride): 100 µg/mL | Solubility ([5]; FeSSIF (pH of 5.0), 1 hour, hydrochloride): 2580 µg/mL | Solubility ([5]; FeSSIF (pH of 5.0), 2 hours, hydrochloride): 2300 µg/mL | Solubility ([5]; FeSSIF (pH of 5.0), 4 hours, hydrochloride): 2560 µg/mL | Crystal form of the solid ([5]; FeSSIF (pH of 5.0), 24 hours): no crystal form change | Solubility ([5]; FeSSIF (pH of 5.0), 24 hours, hydrochloride): 3460 µg/mL | Solubility ([5]; SGF (pH of 1.0), 1 hour, hydrochloride): 310 µg/mL | Solubility ([5]; SGF (pH of 1.0), 2 hours, hydrochloride): 270 µg/mL | Solubility ([5]; SGF (pH of 1.0), 4 hours, hydrochloride): 290 µg/mL | Solubility ([5]; SGF (pH of 1.0), 24 hours, hydrochloride): 310 µg/mL | Crystal form of the solid ([5]; Water, 1 hour, hydrochloride): B + F | Solubility ([5]; Water, 1 hour, hydrochloride): 1910 µg/mL | Crystal form of the solid ([5]; Water, 2 hours, hydrochloride): B + F | Solubility ([5]; Water, 2 hours, hydrochloride): 2430 µg/mL | Crystal form of the solid ([5]; Water, 4 hours, hydrochloride): B + F | Solubility ([5]; Water, 4 hours, hydrochloride): 2240 µg/mL | Crystal form of the solid ([5]; Water, 24 hours, hydrochloride): B + F | Solubility ([5]; Water, 24 hours, hydrochloride): 2610 µg/mL | Solubility ([5]; pH = 1.0 hydrochloric acid aqueous solution, 1 hour, hydrochloride): 270 µg/mL | Solubility ([5]; pH = 1.0 hydrochloric acid aqueous solution, 2 hours): 280 µg/mL | Solubility ([5]; pH = 1.0 hydrochloric acid aqueous solution, 4 hours, hydrochloride): 280 µg/mL | Solubility ([5]; pH = 1.0 hydrochloric acid aqueous solution, 24 hours, hydrochloride): 300 µg/mL | Crystal form of the solid [5, 12]: B + F | Solubility [5, 12]: 1910 µg/mL | Crystal form of the solid [5, 13]: B + F | Solubility [5, 13]: 2350 µg/mL | Crystal form of the solid [5, 14]: B + F | Solubility [5, 14]: 1990 µg/mL | Crystal form of the solid [5, 15]: B + F | Solubility [5, 15]: 2310 µg/mL | Crystal form of the solid ([5]; pH = 6.8 phosphate buffer, 1 hour): Free alkali | Solubility ([5]; pH = 6.8 phosphate buffer, 1 hour, hydrochloride): Not detected | Crystal form of the solid ([5]; pH = 6.8 phosphate buffer, 2 hours): Free alkali | Crystal form of the solid [5, 16]: Free alkali | Solubility [5, 16]: Not detected | Crystal form of the solid [5, 17]: Free alkali | Solubility [5, 17]: Not detected | solubility at 2 h ([5]; phosphate buffer, pH 6.8, aqueous buffer, thermodynamic from solid, pH = 6.8 phosphate buffer, 2 hours): 0.28 µg/mL | PE bag adhesive rate [7]: 0.0003 g/cm^2 | Dissolution amount ([8]; Medium Water, 5 min): Not detected | Dissolution amount ([8]; Medium Water, 10 min): 0.0002 mg/mL | Dissolution amount ([8]; Medium Water, 30 min): 0.0003 mg/mL | Dissolution amount ([8]; Medium Water, 45 min): 0.0009 mg/mL | Dissolution amount ([8]; Medium Water, 60 min): 0.0003 mg/mL | Dissolution amount ([8]; Medium Water, 90 min): 0.0004 mg/mL | Dissolution amount ([8]; Medium pH = 4.0, flow rate 4 mL/minute, 5 min): 0.0307 mg/mL | Dissolution amount ([8]; Medium pH = 4.0, flow rate 4 mL/minute, 10 min): 0.0404 mg/mL | Dissolution amount ([8]; Medium pH = 4.0, flow rate 4 mL/minute, 30 min): 0.0461 mg/mL | Dissolution amount ([8]; Medium pH = 4.0, flow rate 4 mL/minute, 45 min): 0.0488 mg/mL | Dissolution amount ([8]; Medium pH = 4.0, flow rate 4 mL/minute, 60 min): 0.0469 mg/mL | Dissolution amount ([8]; Medium pH = 4.0, flow rate 4 mL/minute, 90 min): 0.0487 mg/mL | Compression degree ([9]; (tap density − bulk density)/tap density): 58.0% | Bulk density ([9]; fixed-volume method, 50 mL): 0.14 g/mL | Tap density ([9]; fixed-volume method, after tapping): 0.33 g/mL | Angle of repose ([9]; pouring method with residual cone method): 64.95 ° | Hausner ratio ([9]; tap density/bulk density): 2.4
SMILES: CCCc1nc(-c2ccc(-c3ccc(CCC(N)(CO)CO)cc3)cc2)co1.Cl [Crystal form B, 2-amino-2-{2-(4'-(2-propyloxazol-4-yl)-[1,1'-biphenyl]-4-yl)ethyl}-1,3-propanediol hydrochloride]
Crystal form after ground (XRPD) [6]: partially crystal transformed into the crystal form A
